Laboratory results as given in patent US20220388953A1, “COMPOUNDS WITH ANTIMICROBIAL ACTIVITY” (The Hong Kong Polytechnic University, priority 2018, published 2022).
Converted amounts (≈) assume the structure as drawn. Like-named read-outs stand apart in the source and are kept apart here.

Columns and labels:
β′ CH −σ^A interaction = assay: ELISA-based binding assay using σ^A and a GST-tagged β′ subunit fragment (β′-CH); parameters: species or system Bacillus subtilis; settings: inhibitor compounds used at 500 μM (FIG. 3)
Description: FIG. 3 depicts a graph showing assay results of hit compound activity determined by ELISA of the β′ CH −σ^A interaction. Inhibitor compounds C1-C7 were used at 500 μM.

[1] = system: Streptococcus pneumoniae (Klein) Chester (ATCC 49619); assay: Antimicrobial assay, broth microdilution (CLSI), MIC; assay type: cell-based
Description: C3 derivatives were synthesized and antimicrobial activity measured against Streptococcus pneumoniae (MIC, minimum inhibitory concentration).
Bacterial Strains was used in this study is Streptococcus pneumoniae (Klein) Chester (ATCC® 49619™)
The antimicrobial activity of the compounds was determined by broth microdilution according to the Clinical & Laboratory Standards Institute (CLSI) guidelines. The test medium was cation-adjusted Mueller-Hinton broth (MH). Serial two-fold dilutions were performed for the tested chemicals starting from 256 μg/mL to 0.5 μg/mL, and the bacterial cell inoculum was adjusted to approximately 5×10^5 CFU/mL. Results were taken after 20 h of incubation at 37° C. The MIC was defined as the lowest concentration of antibiotic with no visible growth. Experiments were performed in duplicates.

[2] = ATCC49619, Table 1, Streptococcus pneumoniae ATCC 49619, 20 h at 37° C., read-out: MIC
[3] = Streptococcus pneumoniae, ATCC49619, 20 h

Row | MIC [1, 2] [µg/mL] | melting point [°C] | Structure (SMILES) | inhibitory activity against the binding of σ^A and β′ fragments (β′ CH −σ^A interaction) | MIC [1, 3] [µg/mL]
1 | 32 (≈ 64.2 µM) | 144 to 145 | O=C(Nc1cccc(Sc2ccc(C(=O)c3ccccc3C(=O)O)cc2[N+](=O)[O-])c1)c1ccccc1 [C3-9, 2-(4-((3-Benzamidophenyl)thio)-3-nitrobenzoyl)benzoic Acid] | – | –
2 | 256 (≈ 668 µM) | 198 to 199 | Cc1occc1Sc1ccc(C(=O)c2ccccc2C(=O)O)cc1[N+](=O)[O-] [C3-16, 2-(4-((2-Methylfuran-3-yl)thio)-3-nitrobenzoyl)benzoic Acid] | – | –
3 | 128 (≈ 340 µM) | 90 to 92 | Cc1cccc(Nc2ccc(C(=O)c3ccccc3C(=O)O)cc2[N+](=O)[O-])c1 [C3-18, 2-(3-Nitro-4-(m-tolylamino)benzoyl)benzoic Acid] | – | –
4 | > 256 | 132 to 134 | O=C(O)c1ccccc1C(=O)c1ccc(Nc2cccc(CO)c2)c([N+](=O)[O-])c1 [C3-19, 2-(4-((3-(Hydroxymethyl)phenyl)amino)-3-nitrobenzoyl)benzoic Acid] | – | –
5 | 256 (≈ 612 µM) | 110 to 112 | CC(C)(C)c1cccc(Nc2ccc(C(=O)c3ccccc3C(=O)O)cc2[N+](=O)[O-])c1 [C3-21, 2-(4-((3-(tert-Butyl)phenyl)amino)-3-nitrobenzoyl)benzoic Acid] | – | –
6 | > 256 | 139 to 141 | NC(=O)c1cccc(Nc2ccc(C(=O)c3ccccc3C(=O)O)cc2[N+](=O)[O-])c1 [C3-22, 2-(4-((3-Carbamoylphenyl)amino)-3-nitrobenzoyl)benzoic Acid] | – | –
7 | > 256 | 225 to 226 | COc1ccc(Nc2ccc(C(=O)c3ccccc3C(=O)O)cc2[N+](=O)[O-])cc1 [C3-24, 2-(4-((4-Methoxyphenyl)amino)-3-nitrobenzoyl)benzoic Acid] | – | –
8 | > 256 | 151 to 153 | O=C(O)c1ccccc1C(=O)c1ccc(Nc2cccc3cccnc23)c([N+](=O)[O-])c1 [C3-26, 2-(3-Nitro-4-(quinolin-8-ylamino)benzoyl)benzoic Acid] | – | –
9 | > 256 | 99 to 100 | O=C(O)c1ccccc1C(=O)c1ccc(Nc2nccs2)c([N+](=O)[O-])c1 [C3-27, 2-(3-Nitro-4-(thiazol-2-ylamino)benzoyl)benzoic Acid] | – | –
10 | 256 (≈ 680 µM) | 88 to 90 | O=C(O)c1ccccc1C(=O)c1ccc(NCc2ccccc2)c([N+](=O)[O-])c1 [C3-29, 2-(4-(Benzylamino)-3-nitrobenzoyl)benzoic Acid] | – | –

Continued, compound first:

Row | Structure (SMILES) | MIC [1, 2] [µg/mL] | melting point [°C] | inhibitory activity against the binding of σ^A and β′ fragments (β′ CH −σ^A interaction) | MIC [1, 3] [µg/mL]
11 | Nc1ccccc1Sc1ccc(C(=O)c2ccccc2C(=O)O)cc1[N+](=O)[O-] [C3-1, 2-(4-((2-Aminophenyl)thio)-3-nitrobenzoyl)benzoic Acid] | – | – | possessed inhibitory activity | –
12 | CC(=O)Nc1cccc(Sc2ccc(C(=O)c3ccccc3C(=O)O)cc2[N+](=O)[O-])c1 [C3-8, 2-(4-((3-Acetamidophenyl)thio)-3-nitrobenzoyl)benzoic Acid] | 256 (≈ 587 µM) | 144 to 146 | – | –
13 | O=C(O)c1ccccc1C(=O)c1ccc(Sc2ccc(Cl)cc2Cl)c([N+](=O)[O-])c1 [C3-11, 2-(4-((2,4-Dichlorophenyl)thio)-3-nitrobenzoyl)benzoic Acid] | – | 260 to 262 | – | 32 (≈ 71.4 µM)
14 | Cc1ccc(Sc2ccc(C(=O)c3ccccc3C(=O)O)cc2[N+](=O)[O-])c(C)c1 [C3-12, 2-(4-((2,4-Dimethylphenyl)thio)-3-nitrobenzoyl)benzoic Acid] | – | 240 to 242 | – | 32 (≈ 78.5 µM)
15 | CCN(CC)C(=O)c1ccc(Sc2ccc(C(=O)c3ccccc3C(=O)O)cc2[N+](=O)[O-])c([N+](=O)[O-])c1 [C3-14, 2-(4-((4-(Diethylcarbamoyl)-2-nitrophenyl)thio)-3-nitrobenzoyl)benzoic Acid] | – | 129 to 130 | – | 256 (≈ 489 µM)
16 | Cc1cccc([N+](=O)[O-])c1Sc1ccc(C(=O)c2ccccc2C(=O)O)cc1[N+](=O)[O-] [C3-15, 2-(4-((2-Methyl-6-nitrophenyl)thio)-3-nitrobenzoyl)benzoic Acid] | – | 269 to 271 | – | 128 (≈ 292 µM)
17 | Nc1ccccc1Nc1ccc(C(=O)c2ccccc2C(=O)O)cc1[N+](=O)[O-] [C3-17, 2-(4-((2-Aminophenyl)amino)-3-nitrobenzoyl)benzoic Acid] | – | 201 to 202 | – | > 256
18 | O=C(O)c1ccccc1C(=O)c1ccc(Nc2ccc(Cl)c(Cl)c2)c([N+](=O)[O-])c1 [C3-23, 2-(4-((3,4-Dichlorophenyl)amino)-3-nitrobenzoyl)benzoic Acid] | – | 115 to 117 | – | 64 (≈ 148 µM)
19 | O=C(O)c1ccccc1C(=O)c1ccc(Nc2ccccc2)c([N+](=O)[O-])c1 [C3-25, 2-(3-Nitro-4-(phenylamino)benzoyl)benzoic Acid] | – | 184 to 186 | – | 256 (≈ 707 µM)
